The source of these data is US20110269811A1, “INHIBITORS OF SEMICARBAZIDE-SENSITIVE AMINE OXIDASE (SSAO) AND VAP-1 MEDIATED ADHESION USEFUL FOR TREATMENT AND PREVENTION OF DISEASES” (priority 2006, published 2011).

One series deals with T1, Recombinant human MAO-A (Homo sapiens, UniProt P21397).
T1 construct: purchased BD Biosciences (MA, USA)
T1 sequence (P21397 1-527): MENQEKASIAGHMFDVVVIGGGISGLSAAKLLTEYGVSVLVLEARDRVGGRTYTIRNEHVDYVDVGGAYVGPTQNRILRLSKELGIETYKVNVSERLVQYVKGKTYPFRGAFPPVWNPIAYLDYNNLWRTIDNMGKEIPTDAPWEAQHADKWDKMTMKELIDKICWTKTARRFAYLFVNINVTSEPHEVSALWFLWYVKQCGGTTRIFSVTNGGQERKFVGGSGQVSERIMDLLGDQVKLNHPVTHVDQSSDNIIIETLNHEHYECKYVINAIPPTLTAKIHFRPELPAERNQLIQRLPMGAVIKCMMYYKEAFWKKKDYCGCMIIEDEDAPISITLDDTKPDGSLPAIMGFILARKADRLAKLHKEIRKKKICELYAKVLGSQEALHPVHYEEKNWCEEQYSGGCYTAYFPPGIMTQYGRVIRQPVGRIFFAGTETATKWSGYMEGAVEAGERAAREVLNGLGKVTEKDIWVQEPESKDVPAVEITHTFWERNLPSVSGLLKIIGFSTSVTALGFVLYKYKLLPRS
Description: MAO-A activity, colorimetric method, tyramine substrate. It is filed as biochemical. Here is the method:
The specificities of the different SSAO inhibitors was tested by determining their abilities to inhibit MAO-A and MAO-B activities in vitro. Recombinant human MAO-A and human MAO-B enzymes were obtained from BD Biosciences (MA, USA). MAO activity was measured using the colorimetric method essentially as described (Holt, A. et al. (1997) Anal. Biochem. 244: 384). A pre-determined amount of inhibitor diluted in 0.2M potassium phosphate buffer, pH 7.6, was added to each well, if required. The amount of inhibitor varied in each assay but was generally at a final concentration of between 1 nM and 1 mM. Controls lacked inhibitor. The following agents were then added to a final reaction volume of 200 μL in 0.2M potassium phosphate buffer, pH 7.6: 0.04 mg/ml of MAO-A or 0.07 mg/ml MAO-B enzyme, 15 μL of 10 mM tyramine substrate (for MAO-A), or 15 μL 100 mM benzylamine substrate (for MAO-B), and 50 μL of freshly made chromogenic solution. The chromogenic solution contained 750 μM vanillic acid (Sigma#V-2250), 400 μM 4-aminoantipyrine (Sigma #A-4328) and 12 U/mL horseradish peroxidase (Sigma #P-8250) in order to cause a change of 0.5 OD A490 nm/h. This was within the linear response range for the assay. The plates were incubated for 60 min at 37° C. The increase in absorbance, reflecting MAO activity, was measured at 490 nm using microplate spectrophotometer (Power Wave 40, Bio-Tek Inst.). Inhibition was presented as percent inhibition compared to control after correcting for background absorbance and IC50 values calculated using GraphPad Prism software. Clorgyline and pargyline (inhibitors of MAO-A and -B, respectively) at 1 μM, were added to some wells as positive controls for MAO inhibition. […] The compounds described in the present invention are therefore expected to have therapeutic utility in the treatment of diseases and conditions in which the activity of SSAO/VAP-1 plays a role, that is, in SSAO/VAP-1 mediated diseases and conditions.

The next series concerns the target T2, human MAO-B (Homo sapiens, UniProt P27338).
T2 construct: purchased BD Biosciences (MA, USA)
T2 sequence (P27338 1-520): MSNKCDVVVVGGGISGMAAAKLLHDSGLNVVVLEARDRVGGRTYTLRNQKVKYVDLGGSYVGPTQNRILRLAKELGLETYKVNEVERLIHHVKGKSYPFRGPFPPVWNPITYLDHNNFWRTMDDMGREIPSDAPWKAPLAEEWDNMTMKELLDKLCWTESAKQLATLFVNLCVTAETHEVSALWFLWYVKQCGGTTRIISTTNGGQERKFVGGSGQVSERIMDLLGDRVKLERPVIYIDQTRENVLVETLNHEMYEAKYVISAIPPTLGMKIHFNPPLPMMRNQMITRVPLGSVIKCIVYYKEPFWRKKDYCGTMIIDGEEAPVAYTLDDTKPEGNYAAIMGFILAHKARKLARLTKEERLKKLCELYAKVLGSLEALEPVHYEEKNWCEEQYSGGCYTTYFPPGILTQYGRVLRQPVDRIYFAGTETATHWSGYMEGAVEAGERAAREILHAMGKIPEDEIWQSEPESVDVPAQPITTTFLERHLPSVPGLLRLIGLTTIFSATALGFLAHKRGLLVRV
Put plainly: MAO-B activity, colorimetric method, benzylamine substrate. It is filed as biochemical. Here is the method: The specificities of the different SSAO inhibitors was tested by determining their abilities to inhibit MAO-A and MAO-B activities in vitro. Recombinant human MAO-A and human MAO-B enzymes were obtained from BD Biosciences (MA, USA). MAO activity was measured using the colorimetric method essentially as described (Holt, A. et al. (1997) Anal. Biochem. 244: 384). A pre-determined amount of inhibitor diluted in 0.2M potassium phosphate buffer, pH 7.6, was added to each well, if required. […] Controls lacked inhibitor. The following agents were then added to a final reaction volume of 200 μL in 0.2M potassium phosphate buffer, pH 7.6: 0.04 mg/ml of MAO-A or 0.07 mg/ml MAO-B enzyme, 15 μL of 10 mM tyramine substrate (for MAO-A), or 15 μL 100 mM benzylamine substrate (for MAO-B), and 50 μL of freshly made chromogenic solution. The chromogenic solution contained 750 μM vanillic acid (Sigma#V-2250), 400 μM 4-aminoantipyrine (Sigma #A-4328) and 12 U/mL horseradish peroxidase (Sigma #P-8250) in order to cause a change of 0.5 OD A490 nm/h. […] The plates were incubated for 60 min at 37° C. The increase in absorbance, reflecting MAO activity, was measured at 490 nm using microplate spectrophotometer (Power Wave 40, Bio-Tek Inst.). Inhibition was presented as percent inhibition compared to control after correcting for background absorbance and IC50 values calculated using GraphPad Prism software. Clorgyline and pargyline (inhibitors of MAO-A and -B, respectively) at 1 μM, were added to some wells as positive controls for MAO inhibition.

`Cl.NC/C(F)=C\Cc1cccc(SC(F)(F)F)c1` [II-15-E, (E)-2-Fluoro-4-(3-trifluoromethylthiophenyl)-2-butenylamine hydrochloride] registered a melting point of 188 to 189 °C. The “Specificity of SSAO on MAO-A” value at Recombinant human MAO-A (ratio of IC50 for MAO-A to IC50 for SSAO) was over 34780. Further, the IC50 on Recombinant human MAO-A (recombinant human MAO-A) is over 800 µM. The “Specificity of SSAO on MAO-B” value on human MAO-B (ratio of IC50 for MAO-B to IC50 for SSAO) is on record as over 34780. Besides, on human MAO-B (recombinant human MAO-B), the IC50 was over 800 µM.
